Data: patent publication US20240299385A1 (ReWind Therapeutics NV, priority 2021, published 2024)

molecular target: T1, human GPR17 receptor (Homo sapiens, UniProt Q13304); assay: Calcium mobilization functional assay (Fluo-8, FLIPR TETRA) in HEK-293 hGPR17 (Gα-q assay); type: cell-based; settings: antagonism of MDL29,951 (~EC80) induced Ca2+ signal; cell line (HEK-293 hGPR17 or HEK-293 Suchi5 hGPR17) not given
T1 construct: host or cells: HEK-293
Procedure, shortened: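 Fluo-8-loaded HEK-293 hGPR17 cells (60 min dye loading, room temperature) were preincubated with compound for twenty minutes, then challenged with agonist MDL29,951 at ~EC80, 500 nM. Intracellular calcium release via Gα-q was recorded as FLIPR fluorescence for a further 2 minutes; compounds tested in duplicate.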

T1 sequence (Q13304 whole entry): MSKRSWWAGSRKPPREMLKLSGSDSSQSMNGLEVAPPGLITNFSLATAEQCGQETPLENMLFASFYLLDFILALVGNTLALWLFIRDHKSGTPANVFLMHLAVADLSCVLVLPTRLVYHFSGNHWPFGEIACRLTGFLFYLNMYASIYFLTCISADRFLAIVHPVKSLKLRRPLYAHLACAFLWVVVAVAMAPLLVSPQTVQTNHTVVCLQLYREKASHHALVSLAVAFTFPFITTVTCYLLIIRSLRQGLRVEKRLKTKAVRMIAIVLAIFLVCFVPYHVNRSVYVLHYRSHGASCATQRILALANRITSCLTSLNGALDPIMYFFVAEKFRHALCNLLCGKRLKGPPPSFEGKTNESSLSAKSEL

IC50 | SMILES
0.5 to 5 µM | N#Cc1ccc(NS(=O)(=O)c2c[nH]c(-c3ccc(Cl)c(F)c3)c2)c(F)c1 [Cpd 287, 5-(4-chloro-3-fluoro-phenyl)-N-(4-cyano-2-fluoro-phenyl)-1H-pyrrole-3-sulfonamide]
0.5 to 5 µM | Cc1cc(F)cc(-c2cc(S(=O)(=O)Nc3ccc(C#N)cc3F)c[nH]2)c1 [Cpd 288, N-(4-cyano-2-fluoro-phenyl)-5-(3-fluoro-5-methyl-phenyl)-1H-pyrrole-3-sulfonamide]
< 0.5 µM | N#Cc1ccc(NS(=O)(=O)c2c[nH]c(-c3c(F)cccc3Cl)c2)c(F)c1 [Cpd 289, 5-(2-chloro-6-fluoro-phenyl)-N-(4-cyano-2-fluoro-phenyl)-1H-pyrrole-3-sulfonamide]
< 0.5 µM | COc1c(F)cccc1-c1cc(S(=O)(=O)Nc2ccc(C#N)cc2F)c[nH]1 [Cpd 290, N-(4-cyano-2-fluoro-phenyl)-5-(3-fluoro-2-methoxy-phenyl)-1H-pyrrole-3-sulfonamide]
0.5 to 5 µM | N#Cc1ccc(NS(=O)(=O)c2c[nH]c(-c3ccc(F)c(F)c3)c2)c(F)c1 [Cpd 291, N-(4-cyano-2-fluoro-phenyl)-5-(3,4-difluorophenyl)-1H-pyrrole-3-sulfonamide]
0.5 to 5 µM | N#Cc1ccc(NS(=O)(=O)c2c[nH]c(-c3cccc(Cl)c3Cl)c2)c(F)c1 [Cpd 292, N-(4-cyano-2-fluoro-phenyl)-5-(2,3-dichlorophenyl)-1H-pyrrole-3-sulfonamide]
5 to 50 µM | Cc1ccc(-c2cc(S(=O)(=O)Nc3cc(F)c(C(F)(F)F)cc3F)c[nH]2)c(F)c1 [Cpd 293, N-[2,5-difluoro-4-(trifluoromethyl)phenyl]-5-(2-fluoro-4-methyl-phenyl)-1H-pyrrole-3-sulfonamide]
5 to 50 µM | COc1ccc(-c2cc(S(=O)(=O)Nc3cc(F)c(C(F)(F)F)cc3F)c[nH]2)cc1 [Cpd 294, N-[2,5-difluoro-4-(trifluoromethyl)phenyl]-5-(4-methoxyphenyl)-1H-pyrrole-3-sulfonamide]
5 to 50 µM | Cc1ccc(-c2cc(S(=O)(=O)Nc3cc(F)c(C(F)(F)F)cc3F)c[nH]2)cc1 [Cpd 295, N-[2,5-difluoro-4-(trifluoromethyl)phenyl]-5-(p-tolyl)-1H-pyrrole-3-sulfonamide]
0.5 to 5 µM | Cc1ccc(Cl)cc1-c1cc(S(=O)(=O)Nc2ccc(C#N)cc2F)c[nH]1 [Cpd 296, 5-(5-chloro-2-methyl-phenyl)-N-(4-cyano-2-fluoro-phenyl)-1H-pyrrole-3-sulfonamide]
5 to 50 µM | O=S(=O)(Nc1cc(F)c(C(F)(F)F)cc1F)c1c[nH]c(-c2ccc(Cl)cc2)c1 [Cpd 297, 5-(4-chlorophenyl)-N-[2,5-difluoro-4-(trifluoromethyl)phenyl]-1H-pyrrole-3-sulfonamide]
0.5 to 5 µM | COc1ccccc1-c1cc(S(=O)(=O)Nc2cc(F)c(C(F)(F)F)cc2F)c[nH]1 [Cpd 298, N-[2,5-difluoro-4-(trifluoromethyl)phenyl]-5-(2-methoxyphenyl)-1H-pyrrole-3-sulfonamide]
0.5 to 5 µM | COc1cc(F)cc(-c2cc(S(=O)(=O)Nc3ccc(C#N)cc3F)c[nH]2)c1 [Cpd 299, N-(4-cyano-2-fluoro-phenyl)-5-(3-fluoro-5-methoxy-phenyl)-1H-pyrrole-3-sulfonamide]
0.5 to 5 µM | COc1ccc(-c2cc(S(=O)(=O)Nc3ccc(C#N)cc3F)c[nH]2)c(Cl)c1 [Cpd 300, 5-(2-chloro-4-methoxy-phenyl)-N-(4-cyano-2-fluoro-phenyl)-1H-pyrrole-3-sulfonamide]
0.5 to 5 µM | O=S(=O)(Nc1cc(F)c(C(F)(F)F)cc1F)c1c[nH]c(-c2cccc(F)c2F)c1 [Cpd 301, 5-(2,3-difluorophenyl)-N-[2,5-difluoro-4-(trifluoromethyl)phenyl]-1H-pyrrole-3-sulfonamide]
< 0.5 µM | O=S(=O)(Nc1cc(F)c(C(F)(F)F)cc1F)c1c[nH]c(-c2cscn2)c1 [Cpd 302, N-[2,5-difluoro-4-(trifluoromethyl)phenyl]-5-thiazol-4-yl-1H-pyrrole-3-sulfonamide]
0.5 to 5 µM | Cc1ccnc(-c2cc(S(=O)(=O)Nc3cc(F)c(C(F)(F)F)cc3F)c[nH]2)c1 [Cpd 303, N-[2,5-difluoro-4-(trifluoromethyl)phenyl]-5-(4-methyl-2-pyridyl)-1H-pyrrole-3-sulfonamide]
0.5 to 5 µM | COc1ccc(-c2cc(S(=O)(=O)Nc3cc(F)c(C(F)(F)F)cc3F)c[nH]2)nc1 [Cpd 304, N-[2,5-difluoro-4-(trifluoromethyl)phenyl]-5-(5-methoxy-2-pyridyl)-1H-pyrrole-3-sulfonamide]
0.5 to 5 µM | COc1ccnc(-c2cc(S(=O)(=O)Nc3cc(F)c(C(F)(F)F)cc3F)c[nH]2)c1 [Cpd 305, N-[2,5-difluoro-4-(trifluoromethyl)phenyl]-5-(4-methoxy-2-pyridyl)-1H-pyrrole-3-sulfonamide]
0.5 to 5 µM | Cc1cccc(Cc2c[nH]cc2S(=O)(=O)Nc2ccc(C#N)cc2F)c1 [Cpd 306, N-(4-cyano-2-fluoro-phenyl)-4-(m-tolylmethyl)-1H-pyrrole-3-sulfonamide]
0.5 to 5 µM | N#Cc1ccc(NS(=O)(=O)c2c[nH]cc2Cc2cccc(C(F)(F)F)c2)c(F)c1 [Cpd 307, N-(4-cyano-2-fluoro-phenyl)-4-[[3-(trifluoromethyl)phenyl]methyl]-1H-pyrrole-3-sulfonamide]
0.5 to 5 µM | N#Cc1ccc(NS(=O)(=O)c2c[nH]cc2Cc2cccc(OC(F)(F)F)c2)c(F)c1 [Cpd 308, N-(4-cyano-2-fluoro-phenyl)-4-[[3-(trifluoromethoxy)phenyl]methyl]-1H-pyrrole-3-sulfonamide]
< 0.5 µM | N#Cc1ccc(NS(=O)(=O)c2c[nH]cc2Cc2cccc(OC(F)F)c2)c(F)c1 [Cpd 309, N-(4-cyano-2-fluoro-phenyl)-4-[[3-(difluoromethoxy)phenyl]methyl]-1H-pyrrole-3-sulfonamide]
0.5 to 5 µM | N#Cc1ccc(NS(=O)(=O)c2c[nH]c(-c3ncccc3C(F)(F)F)c2)c(F)c1 [Cpd 310, N-(4-cyano-2-fluoro-phenyl)-5-[3-(trifluoromethyl)-2-pyridyl]-1H-pyrrole-3-sulfonamide]
0.5 to 5 µM | O=S(=O)(Nc1cc(F)c(OC2CC2)cc1F)c1c[nH]c(-c2ccccn2)c1 [Cpd 311, N-[4-(cyclopropoxy)-2,5-difluoro-phenyl]-5-(2-pyridyl)-1H-pyrrole-3-sulfonamide]
0.5 to 5 µM | N#Cc1ccc(NS(=O)(=O)c2c[nH]c(-c3ccccc3)c2)c(F)c1Cl [Cpd 312, N-(3-chloro-4-cyano-2-fluoro-phenyl)-5-phenyl-1H-pyrrole-3-sulfonamide]
0.5 to 5 µM | O=S(=O)(Nc1ccc(C(F)(F)F)cc1F)c1c[nH]c(-c2ccccc2)c1 [Cpd 313, N-[2-fluoro-4-(trifluoromethyl)phenyl]-5-phenyl-1H-pyrrole-3-sulfonamide]
0.5 to 5 µM | COc1ccc(F)cc1-c1cc(S(=O)(=O)Nc2ccc(C#N)cc2F)c[nH]1 [Cpd 314, N-(4-cyano-2-fluoro-phenyl)-5-(5-fluoro-2-methoxy-phenyl)-1H-pyrrole-3-sulfonamide]
0.5 to 5 µM | Cc1ccc(F)c(-c2cc(S(=O)(=O)Nc3cc(F)c(C(F)(F)F)cc3F)c[nH]2)c1 [Cpd 315, N-[2,5-difluoro-4-(trifluoromethyl)phenyl]-5-(2-fluoro-5-methyl-phenyl)-1H-pyrrole-3-sulfonamide]
